Each block holds one compound with its values, some of them ahead of it. Calls of active or inactive are those of the source. The calls are words filed in the database; no cut-off is given here.
Columns and labels:
[1] = Cytotoxicity against human HeLa cells expressing YFP parkin treated with FCCP/ oligomycin assessed as highest safety dose by DAPI staining analysis; assay type: toxicity, cell-based; details: read-out: Activity
[2] = Cytotoxicity against human HeLa cells expressing YFP parkin assessed as highest safety dose by DAPI staining analysis; assay type: toxicity, cell-based; details: read-out: Activity
[3] = tested on: Primary hippocampal neuron; experiment: Protection against PFFs induced alpha-synuclein fibril formation in C57BL/6 mouse derived primary hippocampal neurons assessed as reduction in phosphorylated S129 alpha-synuclein level at 0.1 to 25 uM measured after 6 days; assay type: functional, cell-based; details: dose 0.1-25 µM, time 6.0 day
[4] = tested on: Primary hippocampal neuron; experiment: Protection against PFFs induced alpha-synuclein fibril formation in C57BL/6 mouse derived primary hippocampal neurons assessed as reduction in phosphorylated S129 alpha-synuclein (250-12) level at 0.1 to 25 uM measured after 6 days; assay type: functional, cell-based; details: dose 0.1-25 µM, time 6.0 day
[5] = tested on: Primary hippocampal neuron; experiment: Protection against PFFs induced alpha-synuclein fibril formation in C57BL/6 mouse derived primary hippocampal neurons assessed as reduction in phosphorylated S129 alpha-synuclein monomer level at 0.1 to 25 uM measured after 6 days; assay type: functional, cell-based; details: dose 0.1-25 µM, time 6.0 day
HeLa [6] = experiment: Induction of mitophagy in human HeLa Mito-Keima/YFP-Parkin cells treated with FCCP/oligomycin measured by FACS analysis; assay type: functional, cell-based
[7] = Therapy index in human HeLa Mito-Keima/YFP-Parkin cells treated with FCCP/oligomycin assessed as mitophagy safety margin by DAPI staining analysis; assay type: toxicity, cell-based; details: read-out: TI
HeLa [8] = experiment: Induction of mitophagy in human HeLa Mito-Keima/YFP-Parkin cells treated with FCCP/oligomycin measured by FACS analysis relative to DMSO; assay type: functional
[9] = tested on: Primary hippocampal neuron; experiment: Protection against PFFs induced alpha-synuclein fibril formation in C57BL/6 mouse derived primary hippocampal neurons assessed as reduction in phosphorylated S129 alpha-synuclein level at 1.56 to 12.5 uM measured after 6 days; assay type: functional, cell-based; details: dose 1.56-12.5 µM, time 6.0 day
HeLa [10] = experiment: Induction of mitophagy in human HeLa Mito-Keima cells treated with FCCP/oligomycin measured by FACS analysis; assay type: functional, cell-based
HeLa [11] = experiment: Induction of mitophagy in human HeLa YFP-Parkin cells treated with FCCP/oligomycin assessed as cells with parkin recruited to mitochondria at 60 mins by FACS analysis; assay type: functional, cell-based; details: 1 h
[12] = Cmax in C57BL/6 mouse at 10 mg/kg, po administered as single dose by mass spectrometry; assay type: ADME, organism-based; design: dose 10 mg/kg, route po; details: in vivo
[13] = Cmax in C57BL/6 mouse at 50 mg/kg, po administered as single dose by mass spectrometry; assay type: ADME, organism-based; design: dose 50 mg/kg, route po; details: in vivo
[14] = AUClast in C57BL/6 mouse at 10 mg/kg, po administered as single dose by mass spectrometry; assay type: ADME, organism-based; design: dose 10 mg/kg, route po; details: in vivo
[15] = AUClast in C57BL/6 mouse at 50 mg/kg, po administered as single dose by mass spectrometry; assay type: ADME, organism-based; design: dose 50 mg/kg, route po; details: in vivo
[16] = Cytotoxicity against human HeLa cells expressing YFP parkin in presence of FCCP/oligomycin at 25 uM assessed as maximum cell death by DAPI staining analysis relative to control; assay type: toxicity, cell-based
Mus musculus [17] = experiment: Protection against PFFs induced alpha-synuclein fibril formation in C57BL/6 mouse assessed as reduction in phosphorylated S129 alpha-synuclein level at 6.25 to 50 mg/kg, po administered twice daily; assay type: functional, organism-based; details: dose 6.25-50 mg/kg
Mus musculus [18] = experiment: Protection against PFFs induced alpha-synuclein fibril formation in C57BL/6 mouse assessed as reduction in phosphorylated S129 alpha-synuclein (250-12) level at 6.25 to 50 mg/kg, po administered twice daily; assay type: functional, organism-based; details: dose 6.25-50 mg/kg
Mus musculus [19] = experiment: Protection against PFFs induced alpha-synuclein fibril formation in C57BL/6 mouse assessed as reduction in phosphorylated S129 alpha-synuclein monomer level at 6.25 to 50 mg/kg, po administered twice daily; assay type: functional, organism-based; details: dose 6.25-50 mg/kg
[20] = Cmax in C57BL/6 mouse at 25 mg/kg, po administered as single dose by mass spectrometry; assay type: ADME, organism-based; design: dose 25 mg/kg, route po; details: in vivo
[21] = Cmax in C57BL/6 mouse at 100 mg/kg, po administered as single dose by mass spectrometry; assay type: ADME, organism-based; design: dose 100 mg/kg, route po; details: in vivo
[22] = AUClast in C57BL/6 mouse at 25 mg/kg, po administered as single dose by mass spectrometry; assay type: ADME, organism-based; design: dose 25 mg/kg, route po; details: in vivo
[23] = AUClast in C57BL/6 mouse at 100 mg/kg, po administered as single dose by mass spectrometry; assay type: ADME, organism-based; design: dose 100 mg/kg, route po; details: in vivo
Mus musculus [24] = experiment: Protection against kidney fibrosis in cisplatin-challenged C57BL/6 mouse assessed as rescue of KIM-1 at 6.25 to 50 mg/kg, po administered once a day for 3 days; assay type: functional, organism-based; details: dose 6.25-50 mg/kg, time 3.0 day
Mus musculus [25] = experiment: Protection against kidney fibrosis in cisplatin-challenged C57BL/6 mouse assessed as reduction in Gdf15 expression at 6.25 to 50 mg/kg, po administered once a day for 3 days; assay type: functional, organism-based; details: dose 6.25-50 mg/kg, time 3.0 day
Mus musculus [26] = experiment: Protection against kidney fibrosis in cisplatin-challenged C57BL/6 mouse assessed as reduction in Tnfrsf12a expression at 6.25 to 50 mg/kg, po administered once a day for 3 days; assay type: functional, organism-based; details: dose 6.25-50 mg/kg, time 3.0 day

Structure (SMILES): C[C@H]1CN([C@H]2CCc3ccccc3[C@@H]2Nc2ncnc3[nH]c(C(F)(F)F)cc23)CCO1 (single isomer, unassigned)
MNTC [1]: 9.1 µM
MNTC [2]: 25 µM
Activity [3]: Active
Activity [4]: Active
Activity [5]: Active

EC50 (HeLa [6]): 28800 nM
Structure (SMILES): COC1CN([C@@H]2CCc3ccccc3[C@H]2Nc2ncnc3[nH]c(C(F)(F)F)cc23)C1
MNTC [2]: 25 µM

Structure (SMILES): COC1CN([C@H]2CCc3ccccc3[C@@H]2Nc2ncnc3[nH]c(C(F)(F)F)cc23)C1
MNTC [1]: 8.3 µM
MNTC [2]: 8.3 µM
Activity [3]: Active
Activity [4]: Active
Activity [5]: Active

Structure (SMILES): FC(F)(F)c1cc2c(N[C@@H]3c4ccccc4CC[C@@H]3N3CCOCC3)ncnc2[nH]1
selectivity ratio [7]: < 10
MNTC [2]: 16.7 µM

EC50 (HeLa [10]): 371 nM
EC50 (HeLa [11]): 1740 nM
Cmax [12]: 0.49 µM
Cmax [13]: 6.98 µM
AUC(0-t) [14]: 1.79 µM·h
AUC(0-t) [15]: 30.5 µM·h
Structure (SMILES): FC(F)(F)c1cc2c(NC3CCCc4ccccc43)ncnc2[nH]1 (single isomer, unassigned)
fold change (FC) (HeLa [8]): 4.43
Activity [9]: Active

EC50 (HeLa [6]): 300 nM
Structure (SMILES): FC(F)(F)c1cc2c(N[C@H]3c4ccccc4CC[C@@H]3N3CC4(COC4)C3)ncnc2[nH]1

Structure (SMILES): c1ccc2c(c1)OC[C@H](C1CCOCC1)[C@H]2Nc1ncnc2[nH]c(C3CC3)cc12 (single isomer, unassigned)
MNTC [1]: 21.5 µM
MNTC [2]: 25 µM
Activity [3]: Active
Activity [4]: Active
Activity [5]: Active

Structure (SMILES): COC1CN([C@@H]2COc3ccccc3[C@H]2Nc2ncnc3[nH]c(C(F)(F)F)cc23)C1
MNTC [1]: 21.4 µM
MNTC [2]: 25 µM
Activity [3]: Active
Activity [4]: Active
Activity [5]: Active

Structure (SMILES): COC1CN([C@@H]2COc3ccccc3[C@H]2Nc2ncnc3[nH]c(C4CC4)cc23)C1
MNTC [1]: 25 µM
MNTC [2]: 25 µM
Emax at 25 µM [16]: 22.5%

EC50 (HeLa [10]): 153 nM
EC50 (HeLa [11]): 1150 nM
Cmax [12]: 0.35 µM
Cmax [20]: 1.15 µM
Cmax [13]: 9.21 µM
Cmax [21]: 19.4 µM
AUC(0-t) [14]: 0.51 µM·h
AUC(0-t) [22]: 1.91 µM·h
AUC(0-t) [15]: 17.3 µM·h
AUC(0-t) [23]: 85.6 µM·h
Structure (SMILES): c1ccc2c(c1)OC[C@H](N1CCOCC1)[C@H]2Nc1ncnc2[nH]c(C3CC3)cc12
MNTC [1]: 25 µM
MNTC [2]: 25 µM
Activity (Mus musculus [17]): Active
Activity (Mus musculus [18]): Active
Activity (Mus musculus [19]): Active
Activity [3]: Active
Activity [4]: Active
Activity [5]: Active
Activity (Mus musculus [24]): Active
Activity (Mus musculus [25]): Active
Activity (Mus musculus [26]): Active

Structure (SMILES): FC(F)(F)c1cc2c(N[C@H]3c4ccccc4CC[C@@H]3N3CCOCC3)ncnc2[nH]1 (single isomer, unassigned)
fold change (FC) (HeLa [8]): 9.78
selectivity ratio [7]: > 30
Activity [9]: Active

— ChEMBL document CHEMBL5393453, “Compositions and methods of using the same for treatment of neurodegenerative and mitochondrial disease” (2021)
